This note sets out measurements from US8536187B2 (Gilead Sciences, Inc., priority 2008, dated 2013).

Bounds are passed on as bounds.

The nature of data set [1]: CC50 assay (CellTiter-Glo) in Huh-7 HCV replicon cells. Conditions: human. The format is cell-based. As to the method:
(§1) The anti-HCV activity of the pyrido[3,2-d]pyrimidine derivatives of this invention was tested in a human hepatoma Huh-7 cell line harboring a HCV replicon. The assay comprised the following steps: • Step 1: compound preparation and serial dilution: serial dilution is performed in 50% DMSO in a 384-well plate. A solution containing a compound at 100-fold concentration of the starting final serial dilution concentration was prepared in 50% DMSO and added to the pre-specified wells in column 1 of a polypropylene 384-well plate. The plate was then placed on a Precision 2000 Workstation to start the serial dilution. After the serial dilution, a volume of 2 μL of the solution was transferred from the 384-well plate to a 96-well cell culture plate containing 100 μL of cell media on a Biomek FX Workstation. The DMSO concentration in the final assay condition was 0.5% after cells are added to the plate and the total volume in each well is brought to 200 μL. • Step 2: to each well of the serial dilution plate prepared above, 100 μL of cell media containing 6000 suspended Huh-7 HCV replicon cells was added with a Multidrop workstation. The plates were incubated for 3 days at 37° C. with 5% CO2. • Step 3: detection: • a) for the EC50 assay, the media in a 96-well cell culture plate was aspirated with a Biotek EL405 plate-washer. A volume of 200 μL of a solution containing a 1:1 mixture of cell-lysis buffer (Promega, Luciferase Cell Culture Lysis 5× Reagent, cat. #E1531) and luciferase substrate solution (Promega, Luciferase Assay, cat.# E4550) was added to each well of the plate with Multidrop. The plate was incubated for 30 minutes at room temperature before the luminescence signal was measured with a TopCount plate-reader. • b) for the CC50 assay, a volume of 100 μL of pre-mixed CellTiter-Glo (Promega, cat.# G7572) solution is added directly to the cell culture in each well of the plate and the luminescence signal is measured with a TopCount plate-reader after 10 minutes of incubation at room temperature.
For orientation: Cellular ATP, detected with luciferase, serves as a proxy for viable cell number.

The test system of data set [2] is HCV replicon in human hepatoma Huh-7 cell line. Kind of data set: Anti-HCV replicon assay, EC50 (luciferase luminescence). It counts as cell-based. As to conditions: Hepatitis C virus, Huh-7, 72 h. On the procedure: as §1
(In general: A replicon is a self-replicating genome or part of one, used to study replication in cells.)

In turn, `CC1(Oc2nc(NCc3ccc(-n4cncn4)cc3)nc3ccc(-c4cnc(OC5CC5)nc4)nc23)CC1` [Example 257, N-(4-(1H-1,2,4-triazol-1-yl)benzyl)-6-(2-cyclopropoxy-pyrimidin-5-yl)-4-(1-methyl-cyclopropoxy)pyrido[3,2-d] pyrimidin-2-amine] returned a CC50 at 3 days in data set [1] (Table 2, 3 days incubation) of 1000 to 10000 nM. The EC50 in data set [2] was less than 100 nM.
`NS(=O)(=O)c1cc(CNc2nc(NCC(F)(F)F)c3nc(C#CC4CC4)ccc3n2)cc(C(F)(F)F)c1` [Example 278, 3-((6-(2-cyclopropylethynyl)-4-(2,2,2-trifluoroethylamino)pyrido[3,2-d]pyrimidin-2-ylamino)methyl)-5-(trifluoro-methyl)benzenesulfonamide]: the CC50 at 3 days in data set [1] (Table 2, 3 days incubation) was greater than 10000 nM. Moreover, in data set [2], the EC50 lay within 100 to 250 nM.
Compound `COc1ccc(-c2ccc3nc(NCc4cccc(-n5cncn5)c4)nc(NCC(F)(F)F)c3n2)cc1S(C)(=O)=O` [Example 20] registered a CC50 at 3 days in data set [1] (Table 1, 3 days incubation) greater than 25000 nM. In addition, the EC50 in data set [2] is less than 100 nM.
Regarding `CS(=O)(=O)c1cccc(-c2ccc3nc(NCCS(N)(=O)=O)nc(NCC(F)(F)F)c3n2)c1` [Example 137, 2-(6-(3-(methylsulfonyl)phenyl)-4-(2,2,2-trifluoroethylamino)pyrido [3,2-d]pyrimidin-2-ylamino)ethanesulfonamide], in data set [1] (Table 2, 3 days incubation), the cytotoxic concentration (CC50) at 3 days was greater than 10000 nM. In addition, in data set [2], the half-maximal effective concentration (EC50) is 100 to 250 nM.
Taken in the same sequence, the figures for `N#Cc1cc(CNc2nc(NC3(C(F)(F)F)CC3)c3nc(-c4ccc(F)cc4)ccc3n2)cc(S(N)(=O)=O)c1` [Example 49, 3-cyano-5-((6-(4-fluorophenyl)-4-(1-(trifluoromethyl)cyclopropyl-amino)pyrido[3,2-d]pyrimidin-2-ylamino)methyl)benzene-sulfonamide] were greater than 10000 nM and less than 100 nM.
Regarding `FC(F)(F)CNc1nc(NCc2ccc(-n3cncn3)cc2)nc2ccc(-c3ccc(OC4CC4)nc3)nc12` [Example 246, N^2-(4-(1H-1,2,4-triazol-1-yl)benzyl)-6-(6-cyclopropoxy-pyridin-3-yl)-N^4-(2,2,2-trifluoroethyl)pyrido[3,2-d] pyrimidine-2,4-diamine], the CC50 at 3 days in data set [1] (Table 2, 3 days incubation) is greater than 10000 nM. The EC50 in data set [2] was less than 100 nM.
Turning to `COc1ccc(-c2ccc3nc(NCc4cccnc4)nc(NCC(F)(F)F)c3n2)cc1S(C)(=O)=O` [Example 166, 6-(4-methoxy-3-(methylsulfonyl)phenyl)-N^2-(pyridin-3-ylmethyl)-N^4-(2,2,2-trifluoroethyl)pyrido [3,2-d]pyrimidine-2,4-diamine], in data set [1] (Table 2, 3 days incubation), the half-maximal cytotoxic concentration (CC50) at 3 days was 1000 to 10000 nM. In addition, the EC50 in data set [2] was less than 100 nM.
Taken in the same sequence, the figures for `CCOc1ccc(-c2ccc3nc(N[C@H](C)c4ccc(S(N)(=O)=O)cc4)nc(OC4(C)CC4)c3n2)cc1S(N)(=O)=O` [Example 264, 4-((R)-1-(6-(4-ethoxy-3-(aminosulfonyl)phenyl)-4-(1-methylcyclopropoxy)pyrido [3,2-d]pyrimidin-2-ylamino)ethyl)benzenesulfonamide] were 1000 to 10000 nM and less than 100 nM.
Taken in the same sequence, the figures for `CS(=O)(=O)c1cccc(-c2ccc3nc(NCc4ccc(-n5cncn5)cc4)nc(O[C@@H]4C[C@@H]5C[C@@H]5C4)c3n2)c1` [Example 194, N-(4-(1H-1,2,4-triazol-1-yl)benzyl)-4-((1S,3r,5R)-bicyclo[3.1.0]hexan-3-yloxy)-6-(3-(methylsulfonyl)phenyl) pyrido[3,2-d]pyrimidin-2-amine] were 1000 to 10000 nM and less than 100 nM.
The compound `Fc1ccc(-c2ccc3nc(NCc4cccc(-n5cncn5)c4)nc(NCC(F)(F)F)c3n2)cc1` [Example 1, 6-(4-Fluoro-phenyl)-N2-(3-[1,2,4]-triazol-1-yl-benzyl)-N4-(2,2,2-trifluoro-ethyl)-pyrido[3,2-d]pyrimidine-2,4-diamine] returned a cytotoxic concentration (CC50) at 3 days in data set [1] (Table 1, 3 days incubation) greater than 25000 nM. The EC50 in data set [2] is 100 to 250 nM.
Regarding `NS(=O)(=O)c1cc(CNc2nc(NC3(C(F)(F)F)CC3)c3nc(-c4ccc(F)cc4)ccc3n2)cc(C(F)(F)F)c1` [Example 26, 3-{[6-(4-fluorophenyl)-4-(1-trifluoromethyl-cyclopropylamino)-pyrido[3,2-d]pyrimidin-2-ylamino]-methyl}-5-trifluoromethyl-benzenesulfonamide], the CC50 at 3 days in data set [1] (Table 2, 3 days incubation) was greater than 10000 nM. For the same compound, in data set [2], the 50% effective concentration (EC50) is 100 to 250 nM.
For `Cc1ccc(-c2ccc3nc(NCc4ccc(S(N)(=O)=O)cc4)nc(NC4(C(F)(F)F)CC4)c3n2)cc1S(C)(=O)=O` [Example 29, 4-{[6-(3-methanesulfonyl-4-methylphenyl)-4-(1-trifluoromethyl-cyclopropylamino)-pyrido[3,2-d]pyrimidin-2-ylamino]-methyl}-benzenesulfonamide] the same measures were 1000 to 10000 nM and less than 100 nM.
`C[C@@H](Nc1nc(NCC(F)(F)F)c2nc(C#CC(C)(C)C)ccc2n1)c1ccc(S(N)(=O)=O)cc1` [Example 285, (R)-4-(1-(6-(3,3-dimethylbut-1-ynyl)-4-(2,2,2-trifluoroethyl-amino)pyrido[3,2-d]pyrimidin-2-ylamino)ethyl)benzene-sulfonamide]: in data set [1] (Table 2, 3 days incubation), the CC50 at 3 days was greater than 10000 nM. The compound also had a concentration giving a half-maximal response (EC50) in data set [2] of 250 to 2000 nM.
With `COCCNc1nc(NCC(F)(F)F)c2nc(-c3ccc(OC)c(S(C)(=O)=O)c3)ccc2n1` [Example 153, 6-(4-methoxy-3-(methylsulfonyl)phenyl)-N^2-(2-methoxyethyl)-N^4-(2,2,2-trifluoroethyl)pyrido[3,2-d] pyrimidine-2,4-diamine], the 50% cytotoxic concentration (CC50) at 3 days in data set [1] (Table 2, 3 days incubation) was greater than 10000 nM. In data set [2], this compound had a concentration giving a half-maximal response (EC50) of less than 100 nM.
Taken in the same sequence, the figures for `Nc1ccc(-c2ccc3nc(NCc4cccc(-n5cncn5)c4)nc(NC4(C(F)(F)F)CC4)c3n2)cn1` [Example 73, N^2-(3-(1H-1,2,4-triazol-1-yl)benzyl)-6-(6-aminopyridin-3-yl)-N^4-(1-(trifluoromethyl)cyclopropyl)pyrido[3,2-d] pyrimidine-2,4-diamine] were 1000 to 10000 nM and less than 100 nM.
Compound `COCc1ccc(-c2ccc3nc(NCc4ccc(S(N)(=O)=O)cc4)nc(NC4(C(F)(F)F)CC4)c3n2)cc1S(C)(=O)=O` [Example 30, 4-{[6-(3-methanesulfonyl-4-methoxymethylphenyl)-4-(1-trifluoromethyl-cyclopropylamino)-pyrido[3,2-d]pyrimidin-2-ylamino]-methyl}-benzenesulfonamide] displayed a CC50 at 3 days in data set [1] (Table 2, 3 days incubation) greater than 10000 nM. In data set [2], the EC50 was less than 100 nM.
In the case of `c1ncn(-c2ccc(CNc3nc(OC4CC4)c4nc(-c5ccc(OC6CC6)nc5)ccc4n3)cc2)n1` [Example 248, N-(4-(1H-1,2,4-triazol-1-yl)benzyl)-4-cyclopropoxy-6-(6-cyclopropoxypyridin-3-yl)pyrido[3,2-d]pyrimidin-2-amine], in data set [1] (Table 2, 3 days incubation), the half-maximal cytotoxic concentration (CC50) at 3 days was in the range of 1000 to 10000 nM. In addition, in data set [2], the EC50 was less than 100 nM.
`CC(Cn1cncn1)Nc1nc(NC2(C(F)(F)F)CC2)c2nc(-c3ccc(NC4CC4)nc3)ccc2n1` (stereo not shown) [Example 114, N^2-(1-(1H-1,2,4-triazol-1-yl)propan-2-yl)-6-(6-(cyclopropylamino)pyridin-3-yl)-N^4-(1-(trifluoromethyl)cyclopropyl)pyrido[3,2-d] pyrimidine-2,4-diamine] came in with a half-maximal cytotoxic concentration (CC50) at 3 days in data set [1] (Table 2, 3 days incubation) greater than 10000 nM. The compound further registered a concentration for a half-maximal effect (EC50) in data set [2] of less than 100 nM.
In data set [2], `COc1ccc(-c2ccc3nc(NCc4ccc(S(N)(=O)=O)cc4)nc(NCC(F)(F)F)c3n2)cc1C(N)=O` [Example 226, 4-((6-(3-(aminocarbonyl)l-4-methoxyphenyl)-4-(2,2,2-trifluoroethylamino)pyrido [3,2-d]pyrimidin-2-ylamino)methyl)benzene-sulfonamide] gave an EC50 of less than 100 nM.

As a reminder, the CC50 is the concentration at which the toxic effect on the cells reaches its halfway point. High values mean better tolerance by the cells, low ones harm at low concentration. For orientation: EC50 means the concentration giving half of the maximal effect. Read a low EC50 as a more potent agent.
